The target in assay [1] is human leukocyte elastase (huLE) (Homo sapiens, UniProt P08246). Particulars: 10 µM.
The target of assay [2] is porcine liver carboxylesterase (PLCE) (Sus scrofa, UniProt Q29550). Nature of the assay: biochemical. Particulars: read-out: Relative Activity (%).
The next assay deals with T1, GS-7340 Ester Hydrolase (Homo sapiens, UniProt P10619).
T1 construct: from tissue; host or cells: human peripheral blood mononuclear cells (extract and column pools)
Briefly: biochemical. Particulars: read-out: IC50 (μM) GS-7340 Ester Hydrolase.

As usually defined, the IC50 is the concentration at which inhibition is half-maximal.

porcine liver carboxylesterase (PLCE), sequence (Q29550 19-566): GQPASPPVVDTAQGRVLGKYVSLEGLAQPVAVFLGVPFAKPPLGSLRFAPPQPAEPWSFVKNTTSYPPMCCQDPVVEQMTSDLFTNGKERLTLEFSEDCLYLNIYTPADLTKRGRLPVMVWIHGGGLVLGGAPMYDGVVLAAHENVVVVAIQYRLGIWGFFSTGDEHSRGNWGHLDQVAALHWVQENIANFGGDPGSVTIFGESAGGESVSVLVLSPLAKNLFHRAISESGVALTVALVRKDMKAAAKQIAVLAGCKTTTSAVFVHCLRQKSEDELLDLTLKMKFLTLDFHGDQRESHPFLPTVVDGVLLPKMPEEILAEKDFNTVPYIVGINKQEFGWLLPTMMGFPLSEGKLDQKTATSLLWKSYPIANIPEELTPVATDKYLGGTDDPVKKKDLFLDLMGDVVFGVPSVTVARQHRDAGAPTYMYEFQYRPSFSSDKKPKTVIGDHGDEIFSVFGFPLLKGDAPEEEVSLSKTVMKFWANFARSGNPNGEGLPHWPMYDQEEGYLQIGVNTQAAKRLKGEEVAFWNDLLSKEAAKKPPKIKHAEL
T1 sequence (P10619 29-326 limits assumed): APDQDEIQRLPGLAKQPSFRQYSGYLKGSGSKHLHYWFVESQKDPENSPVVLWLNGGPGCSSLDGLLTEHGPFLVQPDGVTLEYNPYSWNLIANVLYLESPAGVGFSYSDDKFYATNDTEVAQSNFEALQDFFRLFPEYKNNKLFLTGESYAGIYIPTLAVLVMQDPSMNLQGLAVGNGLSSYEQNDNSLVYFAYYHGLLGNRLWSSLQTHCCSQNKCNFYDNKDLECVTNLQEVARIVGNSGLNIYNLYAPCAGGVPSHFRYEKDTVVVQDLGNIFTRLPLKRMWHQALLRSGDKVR
T1 sequence (P10619 327-480 limits assumed): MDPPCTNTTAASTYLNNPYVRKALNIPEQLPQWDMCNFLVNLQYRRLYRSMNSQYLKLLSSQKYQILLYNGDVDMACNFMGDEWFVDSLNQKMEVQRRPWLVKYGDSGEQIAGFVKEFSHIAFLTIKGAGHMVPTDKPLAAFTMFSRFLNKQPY
human leukocyte elastase (huLE), sequence (P08246 30-267): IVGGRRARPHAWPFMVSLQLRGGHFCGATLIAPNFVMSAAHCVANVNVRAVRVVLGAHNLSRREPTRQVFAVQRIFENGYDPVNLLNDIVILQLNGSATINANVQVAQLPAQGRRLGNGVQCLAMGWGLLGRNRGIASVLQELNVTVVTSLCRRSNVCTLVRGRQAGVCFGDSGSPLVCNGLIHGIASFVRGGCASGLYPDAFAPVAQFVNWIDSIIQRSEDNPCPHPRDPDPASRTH

On to `O=c1oc(Cl)c(Cl)c2ccccc12` [3,4-dichloroisocoumarin], for which, in assay [1], the “Relative Activity (%)” value worked out at 25%. For the same molecule, in assay [2], the activity at 1 µM turned out to be 100%, the activity at 10 µM amounted to 100%, the activity at 100 µM came out at 90% and the activity at 1000 µM is 20%. Also, the IC50 at GS-7340 Ester Hydrolase came out at 4 µM.

The values above are taken from US20060115815A1 (priority 2002, published 2006).
